In ChEMBL document CHEMBL1128940, “Dual inhibition of angiotensin-converting enzyme and neutral endopeptidase by tricyclic benzazepinone thiols” (Bioorg Med Chem Lett, 1996):
pIC50: −log10 of the molar value.

Tests used:
[1] = molecular target: Angiotensin-converting enzyme (Homo sapiens, UniProt P12821+Q9BYF1); assay: Inhibition of Angiotensin I converting enzyme; type: protein assay
Neprilysin = Neprilysin (Homo sapiens, UniProt P08473); assay: Inhibition of neutral endopeptidase
Sequence of Neprilysin (P08473 whole entry): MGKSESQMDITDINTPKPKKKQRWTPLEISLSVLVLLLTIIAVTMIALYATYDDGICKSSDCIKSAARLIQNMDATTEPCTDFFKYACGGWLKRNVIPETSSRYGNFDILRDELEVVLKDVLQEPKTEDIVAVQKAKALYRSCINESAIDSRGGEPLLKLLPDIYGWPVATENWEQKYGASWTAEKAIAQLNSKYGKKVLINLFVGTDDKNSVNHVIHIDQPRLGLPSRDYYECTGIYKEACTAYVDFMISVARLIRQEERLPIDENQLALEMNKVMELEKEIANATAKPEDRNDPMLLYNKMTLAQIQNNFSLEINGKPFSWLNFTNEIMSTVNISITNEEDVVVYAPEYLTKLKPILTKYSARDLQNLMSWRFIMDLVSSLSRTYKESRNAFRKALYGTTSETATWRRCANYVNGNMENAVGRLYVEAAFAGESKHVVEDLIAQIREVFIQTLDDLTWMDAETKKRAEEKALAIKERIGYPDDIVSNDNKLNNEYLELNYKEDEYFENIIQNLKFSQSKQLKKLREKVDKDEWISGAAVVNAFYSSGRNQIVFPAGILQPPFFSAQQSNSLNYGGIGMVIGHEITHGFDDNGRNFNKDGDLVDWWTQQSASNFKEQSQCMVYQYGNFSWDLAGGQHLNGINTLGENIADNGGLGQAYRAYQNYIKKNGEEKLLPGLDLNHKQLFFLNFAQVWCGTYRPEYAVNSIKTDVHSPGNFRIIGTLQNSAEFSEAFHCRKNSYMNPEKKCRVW

| Compound | IC50 [1] | pIC50 (Neprilysin) |
| --- | --- | --- |
| CC(C)(S)C(=O)NC1CCc2cccc3c2N(C1=O)[C@H](C(=O)O)C3 (some centres not stated) | > 1000 nM | < 6.00 |
| O=C(O)[C@@H]1Cc2cccc3c2N1C(=O)C(NC(=O)C1(S)Cc2ccccc2C1)CC3 (some centres not stated) | > 1000 nM | 6.30 |
| O=C(NC1CCc2cccc3c2N(C1=O)[C@H](C(=O)O)C3)[C@@H](S)Cc1ccc(-c2ccccc2)cc1 (some centres not stated) | 89 nM | < 6.00 |
| O=C(N[C@H]1CCc2cccc3c2N(C1=O)[C@H](C(=O)O)C3)C(CS)Cc1ccc(-c2ccccc2)cc1 (stereo in doubt; 4n (S)) | 1120 nM | 7.92 |
| C[C@H](S)C(=O)NC1CCc2cccc3c2N(C1=O)[C@H](C(=O)O)C3 (some centres not stated) | 165 nM | < 6.00 |
| O=C(NC1CCc2cccc3c2N(C1=O)[C@H](C(=O)O)C3)[C@H](S)Cc1ccccc1 (some centres not stated) | 283 nM | 7.08 |
| O=C(N[C@@H]1CCc2cccc3c2N(C1=O)[C@H](C(=O)O)C3)[C@@H](S)Cc1ccccc1 | 62 nM | < 6.00 |
| CC(C)[C@H](S)C(=O)NC1CCc2cccc3c2N(C1=O)[C@H](C(=O)O)C3 (some centres not stated) | 30 nM | 6.03 |
| O=C(CS)NC1CCc2cccc3c2N(C1=O)[C@H](C(=O)O)C3 (some centres not stated) |  | < 6.00 |
| CC[C@@H](C)[C@H](S)C(=O)NC1CCc2cccc3c2N(C1=O)[C@H](C(=O)O)C3 (some centres not stated) | 41 nM | < 6.00 |
| O=C(NC1CCc2cccc3c2N(C1=O)[C@H](C(=O)O)C3)[C@@H](S)C1CCCCC1 (some centres not stated) | < 100 nM | < 6.00 |
| O=C(O)[C@@H]1Cc2cccc3c2N1C(=O)C(NC(=O)C1(S)CCCC1)CC3 (some centres not stated) | 253 nM | < 6.00 |
| O=C(N[C@H]1CCc2cccc3c2N(C1=O)[C@H](C(=O)O)C3)[C@@H](S)Cc1ccccc1 | 40 nM | 7.32 |
| O=C(N[C@H]1CCc2cccc3c2N(C1=O)[C@H](C(=O)O)C3)C(CS)Cc1ccc(-c2ccccc2)cc1 (stereo in doubt; 4m (S)) | 77 nM | 7.82 |
